Values joined by “and” are separate entries in the source; they are usually repeats but may differ in a detail not shown here. Equal values may be shown once.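 Step 1: Grow cells in 96-well plates. Step 2: Expose to compound for 48 hours at 5 concentrations. Step 3: Interpolate endpoints linearly; if unreached, use highest concentration. Abbreviation: GI50, concentration required for 50% inhibition of growth. Definition used: TGI = concentration required for complete inhibition of growth.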
How the values were obtained:
Assay in all cases: NCI tumour cell line growth inhibition, 48 h
LXFL 529 NSCLC = system: LXFL 529 NSCLC
DMS 273 small cell lung = system: DMS 273 small cell lung
DLD-1 colon = system: DLD-1 colon
HOP-18 NSCLC = system: HOP-18 NSCLC
RXF-631 renal = system: RXF-631 renal
M19-MEL melanoma = system: M19-MEL melanoma
XF 498 CNS = system: XF 498 CNS
SNB-78 CNS = system: SNB-78 CNS
P388/ADR leukemia = system: P388/ADR leukemia
SN12K1 renal = system: SN12K1 renal
P388 leukemia = system: P388 leukemia

| Structure (SMILES) | TGI (LXFL 529 NSCLC) | TGI (DMS 273 small cell lung) | TGI (DLD-1 colon) | TGI (HOP-18 NSCLC) | TGI (RXF-631 renal) | TGI (M19-MEL melanoma) | TGI (XF 498 CNS) | TGI (SNB-78 CNS) | TGI (P388/ADR leukemia) | TGI (SN12K1 renal) | TGI (P388 leukemia) | GI50 (M19-MEL melanoma) | GI50 (DMS 273 small cell lung) | GI50 (DLD-1 colon) | GI50 (SNB-78 CNS) | GI50 (HOP-18 NSCLC) |
| --- | --- | --- | --- | --- | --- | --- | --- | --- | --- | --- | --- | --- | --- | --- | --- | --- |
| O=[N+]([O-])c1ccc(C[P+]2(c3ccccc3)CCCCC2)cc1 | > 100 µM | > 100 µM | > 100 µM | > 100 µM |  |  |  |  |  |  |  |  |  |  |  |  |
| COC(=O)CC(=O)OSc1ccccc1 |  | 41 µM | 48 µM |  | 25 µM |  |  |  |  |  |  |  |  |  |  |  |
| CN(C)c1nc(Oc2nc(N(C)C)nc(N(C)C)n2)nc(N(C)C)n1 | > 100 µM | > 100 µM | > 100 µM | > 100 µM |  | > 100 µM | > 100 µM | > 100 µM |  |  |  |  |  |  |  |  |
| COc1cc2ccc3c4cc(OC)c(OC)cc4c[n+](C)c3c2cc1O | > 100 µM | > 100 µM | > 100 µM | > 100 µM |  | > 100 µM | > 88.1 µM | > 100 µM |  |  |  |  |  |  |  |  |
| CSCC[C@@H](NC(=O)[C@H](CC(C)C)NC(=O)C(Cc1cnc[nH]1)NC(=O)CNC(=O)[C@@H](NC(=O)[C@H](C)NC(=O)[C@H](Cc1c[nH]c2ccccc12)NC(=O)[C@H](CCC(N)=O)NC(=O)[C@@H](N)CC(N)=O)C(C)C)C(N)=O (stereo partly specified) |  | > 100 µM | > 100 µM | > 100 µM |  | > 100 µM | > 100 µM | > 100 µM | > 100 µM | > 100 µM | > 100 µM |  |  |  |  |  |
| Cc1c2ccnc(C(N)=O)c2c(C)c2c1[nH]c1ccccc12 | 26.9 µM | 23.7 µM and 16.7 µM | 45 µM and 23.6 µM | 46.5 µM and 47.3 µM | 28.8 µM | 25.2 µM and 17.4 µM | 19.8 µM and 26.4 µM | 48.3 µM and > 100 µM | 35.8 µM | 19.1 µM | 14 µM | 4.7 µM | 3.5 µM | 3.57 µM | 6.28 µM | 15 µM |
| CC(=O)NNc1nc(C)c(C(=O)NNC(=O)C(=O)Nc2ccc([N+](=O)[O-])cc2[N+](=O)[O-])s1 | > 100 µM | > 100 µM | > 100 µM |  | > 100 µM |  | > 100 µM | > 100 µM |  |  |  |  |  |  |  |  |
| Cc1c(N2CCOCC2)nc2ccc(Cl)cc2c1-c1ccccc1 | > 100 µM | > 100 µM |  |  |  | > 100 µM |  | > 100 µM |  |  |  |  |  |  |  |  |

— PubChem BioAssay (NCI)
